Reference: US20190093170A1, “USE OF TRANSLATIONAL PROFILING TO IDENTIFY TARGET MOLECULES FOR THERAPEUTIC TREATMENT” (THE REGENTS OF THE UNIVERSITY OF CALIFORNIA, priority 2013, published 2019)

Tested on: PC3 human prostate cancer cells
Assay: Ribosome profiling: translational efficiency (ribosome footprint vs RNA-seq read density);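 also: Per-gene footprint-to-mRNA density ratio averaged per codon over the coding sequence, scaled so the median gene equals 1.0 after excluding regulated genes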
Assay type: cell-based
Conditions: for Rapamycin TrlEff: 3-hour treatment with rapamycin (50 nM) in PC3 cells
Experimental: Given the critical role for mTOR in prostate cancer, PC3 human prostate cancer cells, in which mTOR is constitutively hyperactivated, were used to delineate translationally controlled gene expression networks upon complete or partial mTOR inhibition. Ribosome profiling was optimized to assess quantitatively ribosome occupancy genome-wide in cancer cells.
Cells were subsequently treated with cycloheximide (100 μg ml^−1; Sigma) and detergent lysis was performed in the dish. The lysate was treated with DNase and clarified, and a sample was taken for RNA-seq analysis. Lysates were subjected to ribosome footprinting by nuclease treatment. Ribosome-protected fragments were purified, and deep sequencing libraries were generated from these fragments, as well as from poly(A) mRNA purified from non-nuclease-treated lysates. These libraries were analyzed by sequencing on an Illumina GAII.
Ribosome footprint and RNA-seq sequencing reads were aligned against a library of transcripts from the UCSC Known Genes database GRCh37/hg19. The first 25 nucleotides of each read were aligned using Bowtie and this initial alignment was then extended to encompass the full fragment-derived portion of the sequencing read while excluding the linker sequence. Read density profiles were then constructed for the canonical transcript of each gene, using only reads with 0 or 1 total mismatches between the read sequence and the reference sequence, comprised of the transcript fragment followed by the linker sequence. Footprint reads were assigned to an A site nucleotide at position +15 to +17 of the alignment, based on the total fragment length; mRNA reads were assigned to the first nucleotide of the alignment. The average read density per codon was then computed for the coding sequence of each transcript, excluding the first 15 and last 5 codons, which can display atypical ribosome accumulation.
Average read density was used as a measure of mRNA abundance (RNA-seq reads) and of protein synthesis (ribosome profiling reads). For most analyses, genes were filtered to require at least 256 reads in the relevant RNA-seq samples. Translational efficiency was computed as the ratio of ribosome footprint read density to RNA-seq read density, scaled to normalize the translational efficiency of the median gene to 1.0 after excluding regulated genes (log 2 fold-change+1.5 after normalizing for the all-gene median). Changes in protein synthesis, mRNA abundance and translational efficiency were similarly computed as the ratio of read densities between different samples, normalized to give the median gene a ratio of 1.0. This normalization corrects for differences in the absolute number of sequencing reads obtained for different libraries.

## CO[C@H]1C[C@@H]2CC[C@@H](C)[C@@](O)(O2)C(=O)C(=O)N2CCCC[C@H]2C(=O)O[C@H]([C@H](C)C[C@@H]2CC[C@@H](O)[C@H](OC)C2)CC(=O)[C@H](C)/C=C(\C)[C@@H](O)[C@@H](OC)C(=O)[C@H](C)C[C@H](C)/C=C/C=C/C=C/1C [Rapamycin, rapamycin]
Gene ACD
  Rapamycin TrlEff: 2.06
Gene ACTG1
  TrlEff: −0.07
Gene AGRN
  TrlEff: 0.51
Gene AHCY
  TrlEff: −0.23
Gene ALKBH7
  TrlEff: 0.28
Gene AP2A1
  TrlEff: −0.04
Gene ARD1A
  TrlEff: 0.01
Gene ATP5G2
  TrlEff: −0.28
Gene C17orf28
  Rapamycin TrlEff: 1.66
Gene C21orf66
  TrlEff: −0.09
Gene CCNA1
  Rapamycin TrlEff: 1.81
Gene CCNI
  TrlEff: −0.45
Gene CD44
  TrlEff: −0.46
Gene CIRBP
  TrlEff: 0.10
Gene CLPTM1
  TrlEff: 0.26
Gene COL6A2
  TrlEff: 0.43
Gene CRTAP
  TrlEff: −1.17
Gene DDX51
  Rapamycin TrlEff: 1.68
Gene DGCR2
  Rapamycin TrlEff: 1.69
Gene ECSIT
  TrlEff: 0.41
Gene EEF1A1
  Rapamycin TrlEff: −1.57
Gene EEF1A2
  TrlEff: −0.03
Gene EEF1D
  TrlEff: −0.84
Gene EEF1G
  TrlEff: −1.15
Gene EEF2
  TrlEff: −1.12
Gene EIF3H
  TrlEff: −0.79
Gene EIF3L
  TrlEff: −0.85
Gene EIF4B
  TrlEff: −1.21
Gene EVPL
  TrlEff: 0.30
Gene FAM83H
  TrlEff: 0.71
Gene FAM128B
  TrlEff: 0.27
Gene FASN
  TrlEff: 0.47
Gene GAPDH
  TrlEff: −0.27
Gene GLTSCR2
  TrlEff: −0.68
Gene GNB2L1
  TrlEff: −0.77
Gene GTPBP3
  Rapamycin TrlEff: 1.56
Gene HNRNPA1
  TrlEff: −0.86
Gene HSPA8
  TrlEff: −0.46
Gene IMPDH2
  TrlEff: −0.39
Gene LAMA5
  TrlEff: 0.87
Gene LMF2
  TrlEff: 0.39
Gene MAPK6
  Rapamycin TrlEff: −2.43
Gene MAPKAPK2
  Rapamycin TrlEff: 1.50
Gene MTA1
  TrlEff: −0.05
Gene NCLN
  TrlEff: 0.67
Gene NFATC21P
  Rapamycin TrlEff: 1.54
Gene NR2F1
  Rapamycin TrlEff: 1.94
Gene PABPC1
  TrlEff: −1.44
Gene PABPC4
  TrlEff: −0.80
Gene PACS1
  TrlEff: 0.04
Gene PFDN5
  TrlEff: −0.51
Gene PGLS
  TrlEff: 0.20
Gene PGM1
  TrlEff: −0.55
Gene PNKP
  TrlEff: 0.74
Gene PRKD3
  Rapamycin TrlEff: −1.72
Gene PTGES2
  TrlEff: 0.52
Gene RABGGTB
  TrlEff: −0.84
Gene RBPJ
  Rapamycin TrlEff: −1.58
Gene RPL3
  TrlEff: −1.08
Gene RPL4
  TrlEff: −0.85
Gene RPL7
  TrlEff: −1.06
Gene RPL7A
  TrlEff: −0.74
Gene RPL9
  TrlEff: −1.00
Gene RPL10
  TrlEff: −0.79
Gene RPL10A
  TrlEff: −0.94
Gene RPL11
  TrlEff: −1.08
Gene RPL12
  TrlEff: −0.94
Gene RPL13
  TrlEff: −0.38
Gene RPL15
  TrlEff: −0.51
Gene RPL18A
  TrlEff: −0.82
Gene RPL19
  TrlEff: −0.66
Gene RPL22
  TrlEff: −0.89
Gene RPL22L1
  TrlEff: −0.68
Gene RPL24
  TrlEff: −0.63
Gene RPL26
  TrlEff: −1.11
Gene RPL27
  TrlEff: −0.33
Gene RPL27A
  TrlEff: −0.96
Gene RPL28
  Rapamycin TrlEff: −1.59
Gene RPL30
  TrlEff: −0.99
Gene RPL31
  TrlEff: −0.62
Gene RPL32
  TrlEff: −0.97
Gene RPL34
  TrlEff: −1.12
Gene RPL36A
  TrlEff: −1.11
Gene RPL37A
  TrlEff: −1.02
Gene RPL39
  TrlEff: −1.65
  Rapamycin TrlEff: −2.11
Gene RPL41
  TrlEff: −1.15
Gene RPLP0
  TrlEff: −0.42
Gene RPLP2
  TrlEff: −1.18
Gene RPS2
  TrlEff: −0.56
Gene RPS3
  TrlEff: −0.92
Gene RPS3A
  TrlEff: −1.15
Gene RPS4X
  TrlEff: −1.15
Gene RPS5
  TrlEff: −0.77
Gene RPS7
  TrlEff: −0.76
Gene RPS9
  TrlEff: −0.60
Gene RPS12
  TrlEff: −1.22
Gene RPS13
  TrlEff: −0.82
Gene RPS14
  TrlEff: −0.60
Gene RPS15
  TrlEff: 0.03
Gene RPS15A
  TrlEff: −0.96
Gene RPS19
  TrlEff: −0.74
Gene RPS20
  TrlEff: −1.35
Gene RPS21
  TrlEff: −0.60
Gene RPS25
  TrlEff: −0.89
Gene RPS27
  TrlEff: −1.54
  Rapamycin TrlEff: −1.55
Gene RPS27A
  TrlEff: −0.89
Gene RPS28
  TrlEff: −0.80
Gene SDCCAG10
  Rapamycin TrlEff: −1.50
Gene SLC19A1
  TrlEff: 0.23
Gene TKT
  TrlEff: −0.11
Gene TPT1
  TrlEff: −1.22
Gene TSC2
  TrlEff: 0.34
Gene UBA52
  TrlEff: −0.22
Gene UBTD2
  Rapamycin TrlEff: −1.64
Gene UCHL5
  Rapamycin TrlEff: −1.56
Gene VHL
  Rapamycin TrlEff: 1.67
Gene VIM
  TrlEff: −0.40
Gene YB1
  TrlEff: −0.59
